Data from patent publication US9630956B2, “Compounds useful as inhibitors of ATR kinase” (Vertex Pharmaceuticals Incorporated, priority 2010, dated 2017).

These molecules were tested against full-length ATR (Homo sapiens (Human), UniProt Q13535) (assay: ATR Inhibition Assay (radioactive-phosphate incorporation)). Conditions: not given.
Type: biochemical
Description: Compounds were screened for their ability to inhibit ATR kinase using a radioactive-phosphate incorporation assay. Assays were carried out in a mixture of 50 mM Tris/HCl (pH 7.5), 10 mM MgCl2 and 1 mM DTT. Final substrate concentrations were 10 μM [γ-33P]ATP (3 mCi 33P ATP/mmol ATP, Perkin Elmer) and 800 μM target peptide ([…]).
Assays were carried out at 25° C. in the presence of 5 nM full-length ATR. An assay stock buffer solution was prepared containing all of the reagents listed above, with the exception of ATP and the test compound of interest. 13.5 μL of the stock solution was placed in a 96 well plate followed by addition of 2 μL of DMSO stock containing serial dilutions of the test compound (typically starting from a final concentration of 15 μM with 3-fold serial dilutions) in duplicate (final DMSO concentration 7%). The plate was pre-incubated for 10 minutes at 25° C. and the reaction initiated by addition of 15 μL [γ-33P]ATP (final concentration 10 μM).
The reaction was stopped after 24 hours by the addition of 30 μL 0.1 M phosphoric acid containing 2 mM ATP. A multiscreen phosphocellulose filter 96-well plate (Millipore, Cat no. MAPHNOB50) was pretreated with 100 μL 0.2M phosphoric acid prior to the addition of 45 μL of the stopped assay mixture. The plate was washed with 5×200 μL 0.2M phosphoric acid. After drying, 100 μL Optiphase ‘SuperMix’ liquid scintillation cocktail (Perkin Elmer) was added to the well prior to scintillation counting (1450 Microbeta Liquid Scintillation Counter, Wallac).
After removing mean background values for all of the data points, Ki(app) data were calculated from non-linear regression analysis of the initial rate data using the Prism software package (GraphPad Prism version 3.0cx for Macintosh, GraphPad Software, San Diego Calif., USA).
Below is a chart showing the ATR Inhibition Ki values of compounds of the disclosure.

full-length ATR, sequence (Q13535 whole entry): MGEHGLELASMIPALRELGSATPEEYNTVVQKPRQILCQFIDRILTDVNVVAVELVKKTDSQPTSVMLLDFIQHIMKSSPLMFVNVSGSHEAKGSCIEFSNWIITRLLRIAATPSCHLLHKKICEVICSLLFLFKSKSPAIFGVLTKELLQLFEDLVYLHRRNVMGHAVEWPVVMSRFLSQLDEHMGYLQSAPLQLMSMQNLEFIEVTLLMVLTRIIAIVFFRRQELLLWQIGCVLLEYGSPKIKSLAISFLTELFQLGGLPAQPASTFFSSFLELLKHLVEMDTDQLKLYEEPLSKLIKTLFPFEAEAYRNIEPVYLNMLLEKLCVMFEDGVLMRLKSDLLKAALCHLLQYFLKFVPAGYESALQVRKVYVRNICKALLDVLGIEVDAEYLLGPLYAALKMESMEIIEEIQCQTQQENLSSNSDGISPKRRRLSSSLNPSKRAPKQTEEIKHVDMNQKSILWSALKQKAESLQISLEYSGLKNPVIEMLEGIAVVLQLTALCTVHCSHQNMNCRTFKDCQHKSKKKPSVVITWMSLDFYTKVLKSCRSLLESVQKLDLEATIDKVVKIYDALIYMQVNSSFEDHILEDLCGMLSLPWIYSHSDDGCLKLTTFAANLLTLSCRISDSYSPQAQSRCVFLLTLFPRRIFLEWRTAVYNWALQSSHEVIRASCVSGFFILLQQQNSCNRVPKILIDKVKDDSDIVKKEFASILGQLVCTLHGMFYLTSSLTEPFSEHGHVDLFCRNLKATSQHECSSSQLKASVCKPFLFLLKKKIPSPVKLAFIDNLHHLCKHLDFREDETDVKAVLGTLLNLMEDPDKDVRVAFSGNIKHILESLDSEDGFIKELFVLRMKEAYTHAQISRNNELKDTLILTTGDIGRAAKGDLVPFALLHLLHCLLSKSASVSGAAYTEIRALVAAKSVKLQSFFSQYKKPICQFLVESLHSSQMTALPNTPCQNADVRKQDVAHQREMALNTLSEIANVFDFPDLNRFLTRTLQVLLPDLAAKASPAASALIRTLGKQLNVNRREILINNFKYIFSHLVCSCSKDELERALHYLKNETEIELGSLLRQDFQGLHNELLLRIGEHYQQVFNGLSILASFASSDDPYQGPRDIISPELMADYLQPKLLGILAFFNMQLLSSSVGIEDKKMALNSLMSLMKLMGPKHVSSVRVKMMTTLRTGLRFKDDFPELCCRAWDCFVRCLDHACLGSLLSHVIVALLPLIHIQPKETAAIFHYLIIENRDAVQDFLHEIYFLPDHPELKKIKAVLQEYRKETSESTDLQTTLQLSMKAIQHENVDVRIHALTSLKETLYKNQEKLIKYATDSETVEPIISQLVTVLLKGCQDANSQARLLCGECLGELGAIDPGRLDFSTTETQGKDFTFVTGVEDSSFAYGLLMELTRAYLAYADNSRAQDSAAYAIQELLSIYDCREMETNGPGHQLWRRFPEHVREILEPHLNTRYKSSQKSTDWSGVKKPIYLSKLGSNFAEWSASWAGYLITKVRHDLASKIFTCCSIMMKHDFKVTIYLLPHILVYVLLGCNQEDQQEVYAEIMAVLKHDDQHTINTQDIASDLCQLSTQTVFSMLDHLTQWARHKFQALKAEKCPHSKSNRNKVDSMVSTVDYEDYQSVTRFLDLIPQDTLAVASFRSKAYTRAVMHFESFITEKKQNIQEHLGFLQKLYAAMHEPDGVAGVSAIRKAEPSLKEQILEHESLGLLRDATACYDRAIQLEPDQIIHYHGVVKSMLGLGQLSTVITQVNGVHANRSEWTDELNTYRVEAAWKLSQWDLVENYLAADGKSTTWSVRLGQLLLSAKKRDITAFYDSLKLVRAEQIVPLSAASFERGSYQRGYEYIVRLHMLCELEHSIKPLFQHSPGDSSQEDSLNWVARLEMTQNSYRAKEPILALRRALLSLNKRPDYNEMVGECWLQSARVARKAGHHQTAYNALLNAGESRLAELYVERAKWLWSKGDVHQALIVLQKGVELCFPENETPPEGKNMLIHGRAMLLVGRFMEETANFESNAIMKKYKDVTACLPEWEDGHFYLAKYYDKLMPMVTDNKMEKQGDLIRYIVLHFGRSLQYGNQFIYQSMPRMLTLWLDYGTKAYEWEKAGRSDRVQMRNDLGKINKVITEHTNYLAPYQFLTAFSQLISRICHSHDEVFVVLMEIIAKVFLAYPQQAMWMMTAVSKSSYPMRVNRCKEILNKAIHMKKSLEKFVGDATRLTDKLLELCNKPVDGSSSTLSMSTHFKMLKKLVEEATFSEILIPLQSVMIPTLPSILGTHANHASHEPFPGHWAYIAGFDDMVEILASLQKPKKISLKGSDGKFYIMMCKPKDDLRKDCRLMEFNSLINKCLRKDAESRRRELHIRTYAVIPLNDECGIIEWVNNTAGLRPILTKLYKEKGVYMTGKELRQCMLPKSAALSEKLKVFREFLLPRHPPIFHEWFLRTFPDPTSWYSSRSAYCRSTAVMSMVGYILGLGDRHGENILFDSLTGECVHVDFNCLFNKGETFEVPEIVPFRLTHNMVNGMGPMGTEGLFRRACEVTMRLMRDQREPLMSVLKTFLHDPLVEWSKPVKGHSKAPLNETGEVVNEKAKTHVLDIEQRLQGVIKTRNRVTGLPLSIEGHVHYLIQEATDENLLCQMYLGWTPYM

Structure (SMILES) | Ki [nM]
CNCc1ccc(-c2nnc(-c3nc(-c4ccc(=O)n(CCOC)c4)cnc3N)o2)cc1 [Compound I-2] | 5 to 50
CNCc1ccc(-c2nnc(-c3nc(-c4ccc(=O)n(CCO)c4)cnc3N)o2)cc1 [Compound I-4] | 5 to 50
CNCc1ccc(-c2nnc(-c3nc(-c4ccc(=O)n(CCCN)c4)cnc3N)o2)cc1 [Compound I-5] | 50 to 100
CNCc1ccc(-c2nnc(-c3nc(-c4ccc(=O)n(C5CCOC5)c4)cnc3N)o2)c(OC)c1 (centres unmarked) [Compound I-8] | 5 to 50
CNCc1ccc(-c2nnc(-c3nc(-c4ccc(=O)n(C5CCOC5)c4)cnc3N)o2)cc1 (centres unmarked) [Compound I-9] | 5 to 50
CNCc1ccc(-c2nnc(-c3nc(-c4ccc(=O)n(CCN(C)C)c4)cnc3N)o2)c(C)c1 [Compound I-24, 5-[5-amino-6-[5-[2-methyl-4-(methylaminomethyl)phenyl]-1,3,4-oxadiazol-2-yl]pyrazin-2-yl]-1-(2-dimethylaminoethyl)pyridin-2-one] | 5 to 50
CNCc1ccc(-c2nnc(-c3nc(-c4ccc(=O)n(C(C)C(=O)O)c4)cnc3N)o2)c(C)c1 (centres unmarked) [Compound I-38, 2-[5-[5-amino-6-[5-[2-methyl-4-(methylaminomethyl)phenyl]-1,3,4-oxadiazol-2-yl]pyrazin-2-yl]-2-oxo-1-pyridyl]propanoic acid] | 5 to 50
CNCc1cccc(-c2nnc(-c3nc(-c4ccc(=O)n(C(C)C)c4)cnc3N)o2)c1 [Compound I-47, 5-[5-amino-6-[5-[3-(methylaminomethyl)phenyl]-1,3,4-oxadiazol-2-yl]pyrazin-2-yl]-1-isopropyl-pyridin-2-one] | 5 to 50
Nc1ncc(-c2ccc(=O)n(C3CCCC3)c2)nc1-c1cc(-c2ccc(CN3CCCC3)cc2)no1 [Compound I-51] | 5 to 50
CC(C)(CO)NCc1ccc(-c2cc(-c3nc(-c4ccc(=O)n(C5CCCC5)c4)cnc3N)on2)cc1 [Compound I-52] | 5 to 50
CC(C)n1cc(-c2cnc(N)c(-c3cc(-c4ccc(CNc5ccccc5)cc4)no3)n2)ccc1=O [Compound I-65] | 50 to 100

Same assay, conditions: ATR Inhibition Ki(app); 10 μM ATP, 800 μM target peptide, 5 nM full-length ATR, 25° C.

Structure (SMILES) | Ki [nM]
CNCc1ccc(-c2nnc(-c3nc(-c4ccc(=O)n(C)c4)cnc3N)o2)cc1 [Compound I-1] | 5 to 50
CNCc1ccc(-c2nnc(-c3nc(-c4ccc(=O)n(CC#N)c4)cnc3N)o2)cc1 [Compound I-7] | 5 to 50
CNCc1ccc(-c2nnc(-c3nc(-c4ccc(=O)n(C(C)C)c4)cnc3N)o2)c(F)c1 [Compound I-10] | ≤ 5
CNCc1ccc(-c2nnc(-c3nc(-c4ccc(=O)n(C(C)C)c4)cnc3N)o2)c(C)c1 [Compound I-12] | ≤ 5
Cc1cc(CN[C@H]2CCOC2)ccc1-c1nnc(-c2nc(-c3ccc(=O)n(C(C)C)c3)cnc2N)o1 [Compound I-13, 5-[5-amino-6-[5-[2-methyl-4-[[[(3S)-tetrahydrofuran-3-yl]amino]methyl]phenyl]-1,3,4-oxadiazol-2-yl]pyrazin-2-yl]-1-isopropyl-pyridin-2-one] | ≤ 5
CNCc1ccc(-c2nnc(-c3nc(-c4ccc(=O)n(C5CCCC5)c4)cnc3N)o2)c(C)c1 [Compound I-14] | ≤ 5
CNCc1ccc(-c2nnc(-c3nc(-c4ccc(=O)n(C(C)C#N)c4)cnc3N)o2)c(C)c1 (centres unmarked) [Compound I-16] | ≤ 5
CNCc1ccc(-c2nnc(-c3nc(-c4ccc(=O)n(C(C)COC)c4)cnc3N)o2)c(C)c1 (centres unmarked) [Compound I-17] | ≤ 5
CNCc1ccc(-c2nnc(-c3nc(-c4ccc(=O)n(C(C)C5CC5)c4)cnc3N)o2)c(C)c1 (centres unmarked) [Compound I-18] | ≤ 5
CCn1cc(-c2cnc(N)c(-c3nnc(-c4ccc(CNC)cc4OC)o3)n2)ccc1=O [Compound I-19] | ≤ 5
Cc1cc(CNC(C)C)ccc1-c1nnc(-c2nc(-c3ccc(=O)n(C(C)C)c3)cnc2N)o1 [Compound I-20] | ≤ 5
Cc1cc(CNC(C)(C)C)ccc1-c1nnc(-c2nc(-c3ccc(=O)n(C(C)C)c3)cnc2N)o1 [Compound I-21] | ≤ 5
CC(C)n1cc(-c2cnc(N)c(-c3cc(-c4ccc(CN[C@H]5CCOC5)cc4)no3)n2)ccc1=O [Compound I-23] | ≤ 5
CCC(C)n1cc(-c2cnc(N)c(-c3nnc(-c4ccc(CNC)cc4OC)o3)n2)ccc1=O (centres unmarked) [Compound I-25] | ≤ 5
CNCc1ccc(-c2nnc(-c3nc(-c4ccc(=O)n(CC(C)C)c4)cnc3N)o2)c(OC)c1 [Compound I-26] | ≤ 5
CNCc1ccc(-c2nnc(-c3nc(-c4ccc(=O)n(CC(F)(F)F)c4)cnc3N)o2)c(C)c1 [Compound I-27] | ≤ 5
CNCc1ccc(-c2nnc(-c3nc(-c4ccc(=O)n(CC(F)(F)F)c4)cnc3N)o2)c(OC)c1 [Compound I-28] | ≤ 5
CNCc1ccc(-c2cc(-c3nc(-c4ccc(=O)n(C(C)C)c4)cnc3N)on2)c(F)c1 [Compound I-29] | ≤ 5

Structure (SMILES) | Ki [nM]
CC#CC(C)n1cc(-c2cnc(N)c(-c3nnc(-c4ccc(CNC)cc4C)o3)n2)ccc1=O (centres unmarked) [Compound I-30] | ≤ 5
CNCc1ccc(-c2nnc(-c3nc(-c4ccc(=O)n(C(C)CF)c4)cnc3N)o2)c(C)c1 (centres unmarked) [Compound I-31] | 5 to 50
CNCc1ccc(-c2nnc(-c3nc(-c4ccc(=O)n(C5CCC5)c4)cnc3N)o2)c(C)c1 [Compound I-33] | ≤ 5
CNCc1ccc(-c2nnc(-c3nc(-c4ccc(=O)n(C(C)C#N)c4)cnc3N)o2)c(OC)c1 (centres unmarked) [Compound I-34, 2-[5-[5-amino-6-[5-[2-methoxy-4-(methylaminomethyl)phenyl]-1,3,4-oxadiazol-2-yl]pyrazin-2-yl]-2-oxo-1-pyridyl]propanenitrile] | ≤ 5
COc1cc(CNC(C)(C)C)ccc1-c1nnc(-c2nc(-c3ccc(=O)n(C(C)C)c3)cnc2N)o1 [Compound I-35] | ≤ 5
CNCc1ccc(-c2nnc(-c3nc(-c4ccc(=O)n(C(C)CO)c4)cnc3N)o2)c(OC)c1 (centres unmarked) [Compound I-36] | ≤ 5
CC(C)n1cc(-c2cnc(N)c(-c3nnc(-c4ccc(CNC(C)(C)C)cc4C#N)o3)n2)ccc1=O [Compound I-40] | 5 to 50
CNCc1ccc(-c2nnc(-c3nc(-c4ccc(=O)n(C(C)C(F)(F)F)c4)cnc3N)o2)c(OC)c1 (centres unmarked) [Compound I-41] | ≤ 5
CC(N)c1ccc(-c2nnc(-c3nc(-c4ccc(=O)n(C(C)C)c4)cnc3N)o2)cc1 (centres unmarked) [Compound I-45] | 5 to 50
CC(C)n1cc(-c2cnc(N)c(-c3nnc(-c4cccc(CNC(C)(C)C)c4)o3)n2)ccc1=O [Compound I-46] | 50 to 100
CNCc1ccc(-c2cc(-c3nc(-c4ccc(=O)n(C5CCCC5)c4)cnc3N)on2)c(F)c1 [Compound I-56] | ≤ 5
CC(C)n1cc(-c2cnc(N)c(-c3cc(-c4ccc(C(N)CF)cc4)no3)n2)ccc1=O (centres unmarked) [Compound I-59] | 5 to 50
CNCc1ccc(-c2cc(-c3nc(-c4ccc(=O)n(C5CCOCC5)c4)cnc3N)on2)cc1 [Compound I-66] | ≤ 5
C=Cc1cc(-c2cnc(N)c(-c3cc(-c4ccc(CNC)cc4)no3)n2)cn(C(C)C)c1=O [Compound I-67] | 50 to 100
CNCc1ccc(-c2cc(-c3nc(-c4ccc(=O)n(Cc5ccoc5)c4)cnc3N)on2)cc1 [Compound I-69] | ≤ 5
CNCc1ccc(-c2cc(-c3nc(-c4ccc(=O)n(CCN5CCCC5=O)c4)cnc3N)on2)cc1 [Compound I-70] | ≤ 5
CNCc1ccc(-c2cc(-c3nc(-c4cc(Br)c(=O)n(C(C)C)c4)cnc3N)on2)cc1 [Compound I-71] | 5 to 50
CCc1cc(-c2cnc(N)c(-c3cc(-c4ccc(CNC)cc4)no3)n2)cn(C(C)C)c1=O [Compound I-75] | 50 to 100
